Measurements published in the Kinase Knowledgebase extract (Sharma et al. 2016).

Assays:
MAPK14 (human) = MAPK14 (human) (UniProt Q16539); test: Inhibition of MAPK14 Kinase Activity
PIK3CA (human) [1] = target: PIK3CA (human) (UniProt P42336); test: Inhibition of PIK3CA Kinase Activity
PIK3CA (human) [2] = target: PIK3CA (human) (UniProt P42336); test: Inhibition of Substrate Phosphorylation by PIK3CA; conditions: hct 116,bxpc-3 pancreatic,mda-mb-468, concentration not given here

Sequence of MAPK14 (human) (Q16539 whole entry, looked up): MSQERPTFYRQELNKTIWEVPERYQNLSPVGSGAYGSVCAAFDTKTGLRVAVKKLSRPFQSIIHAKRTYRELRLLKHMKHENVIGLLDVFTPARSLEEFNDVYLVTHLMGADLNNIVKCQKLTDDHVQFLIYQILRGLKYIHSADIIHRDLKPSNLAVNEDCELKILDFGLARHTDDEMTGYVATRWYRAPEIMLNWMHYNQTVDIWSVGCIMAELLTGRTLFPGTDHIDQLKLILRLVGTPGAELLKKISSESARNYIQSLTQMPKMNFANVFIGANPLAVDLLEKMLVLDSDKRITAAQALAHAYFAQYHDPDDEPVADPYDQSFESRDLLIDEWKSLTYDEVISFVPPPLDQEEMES
Sequence of PIK3CA (human) (P42336 whole entry, looked up): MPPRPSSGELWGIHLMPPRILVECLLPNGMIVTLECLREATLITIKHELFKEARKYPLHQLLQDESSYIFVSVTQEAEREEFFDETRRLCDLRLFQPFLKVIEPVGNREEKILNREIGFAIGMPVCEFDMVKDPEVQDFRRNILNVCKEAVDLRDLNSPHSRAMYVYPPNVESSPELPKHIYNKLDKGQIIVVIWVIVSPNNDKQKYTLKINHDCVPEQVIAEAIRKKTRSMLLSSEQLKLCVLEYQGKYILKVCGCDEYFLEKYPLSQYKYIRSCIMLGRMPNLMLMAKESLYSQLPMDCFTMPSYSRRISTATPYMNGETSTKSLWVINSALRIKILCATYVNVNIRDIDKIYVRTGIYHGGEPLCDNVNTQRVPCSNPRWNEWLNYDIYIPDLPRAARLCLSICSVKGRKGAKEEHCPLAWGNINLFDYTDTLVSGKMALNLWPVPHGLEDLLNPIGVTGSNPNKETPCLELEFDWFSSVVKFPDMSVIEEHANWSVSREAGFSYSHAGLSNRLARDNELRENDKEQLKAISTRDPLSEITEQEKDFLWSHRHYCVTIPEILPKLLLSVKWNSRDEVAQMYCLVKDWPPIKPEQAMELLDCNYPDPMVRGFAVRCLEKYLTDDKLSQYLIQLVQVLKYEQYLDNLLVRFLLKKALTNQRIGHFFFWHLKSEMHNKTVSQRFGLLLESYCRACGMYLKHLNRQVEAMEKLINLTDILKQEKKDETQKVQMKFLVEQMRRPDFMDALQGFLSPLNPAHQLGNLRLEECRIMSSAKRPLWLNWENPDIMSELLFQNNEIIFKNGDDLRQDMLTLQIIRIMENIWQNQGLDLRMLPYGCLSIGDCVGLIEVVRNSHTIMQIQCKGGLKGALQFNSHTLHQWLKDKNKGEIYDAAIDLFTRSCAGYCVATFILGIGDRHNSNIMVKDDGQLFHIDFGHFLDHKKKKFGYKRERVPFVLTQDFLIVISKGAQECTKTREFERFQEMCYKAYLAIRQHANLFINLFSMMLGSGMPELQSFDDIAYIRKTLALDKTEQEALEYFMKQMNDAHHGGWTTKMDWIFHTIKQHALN

| IC50 (MAPK14 (human)) | IC50 (PIK3CA (human) [1]) | inhibition (PIK3CA (human) [2]) | Structure (SMILES) |
| --- | --- | --- | --- |
| > 100 µM | > 31.6 µM |  | CCNC(=O)Nc1ccc2ncc(-c3ccc(OC(=O)/C=C/c4ccccc4)cc3)nc2n1 |
| > 100 µM |  |  | CCNC(=O)Nc1ccc2ncc(-c3ccc(NC(=O)COCCOC)cc3)nc2n1 |
| > 100 µM |  |  | COc1cc(-c2cnc3ccc(NC(=O)NCCCCP(=O)(O)O)nc3n2)ccc1O |
| > 100 µM |  | 70% | CCNC(=O)Nc1ccc(-c2cnc3ccc(NC(=O)NCC)nc3n2)cc1 |
| > 100 µM |  | 90% | CCNC(=O)Nc1ccc2ncc(-c3ccc(OC(=O)OCCOC)c(OC)c3)nc2n1 |
| > 100 µM |  |  | CCNC(=O)Nc1ccc(-c2cnc3ccc(NC(=O)NCC)nc3n2)cn1 |
| > 100 µM |  |  | CCNC(=O)Nc1ccc2ncc(-c3ccc(NC(=O)OC(C)(C)C)cc3)nc2n1 |
|  |  | 90% | CCNC(=O)Nc1ccc2ncc(Nc3ccc(C)c(NS(C)(=O)=O)c3)nc2n1 |
| > 100 µM |  |  | CCNC(=O)Nc1ccc2ncc(-c3ccc(OC(=O)Oc4ccccc4)cc3)nc2n1 |
| > 100 µM |  |  | CCNC(=O)Nc1ccc2ncc(-c3ccc(OC(=O)OCC(C)C)cc3)nc2n1 |
| > 100 µM |  | 100% | CCNC(=O)Nc1ccc2ncc(-c3ccc(OC(=O)OCCOC)cc3)nc2n1 |
| > 100 µM |  |  | CCNC(=O)Nc1ccc2ncc(Nc3ccc(NC(C)=O)cc3)nc2n1 |
| > 100 µM |  |  | CCOP(=O)(CCCCNC(=O)Nc1ccc2ncc(-c3ccc(O)c(OC)c3)nc2n1)OCC |
| > 31.6 µM |  |  | COCCOC(=O)Oc1ccc(-c2cnc3ccc(NC(=O)NCCCCO)nc3n2)cc1 |
| > 100 µM |  |  | CCNC(=O)Nc1ccc2ncc(-c3cccc(OC(=O)OCCOC)c3)nc2n1 |
| > 100 µM |  |  | CCNC(=O)Nc1ccc2ncc(-c3ccc(NC(=O)OCCOC)cc3)nc2n1 |
| > 100 µM |  | 50% | CCNC(=O)Nc1ccc2ncc(-c3ccc(OC(=O)OC)cc3)nc2n1 |

| Structure (SMILES) | IC50 (MAPK14 (human)) | IC50 (PIK3CA (human) [1]) | inhibition (PIK3CA (human) [2]) |
| --- | --- | --- | --- |
| CCNC(=O)Nc1ccc2ncc(-c3ccc(OC(=O)N(C)C)cc3)nc2n1 | > 100 µM |  |  |
